Patent US20250092014A1, “COMPOUNDS AND METHODS OF ACTIVATING LIPOPROTEIN LIPASE” (Metrea Biosciences, Inc., priority 2021, published 2025)
Counter-ions that a name gives are not always drawn.

Molecular target: T1, LPL:sGPIHBP1 complex (Homo sapiens, UniProt P06858)
T1 sequence (P06858 28-475): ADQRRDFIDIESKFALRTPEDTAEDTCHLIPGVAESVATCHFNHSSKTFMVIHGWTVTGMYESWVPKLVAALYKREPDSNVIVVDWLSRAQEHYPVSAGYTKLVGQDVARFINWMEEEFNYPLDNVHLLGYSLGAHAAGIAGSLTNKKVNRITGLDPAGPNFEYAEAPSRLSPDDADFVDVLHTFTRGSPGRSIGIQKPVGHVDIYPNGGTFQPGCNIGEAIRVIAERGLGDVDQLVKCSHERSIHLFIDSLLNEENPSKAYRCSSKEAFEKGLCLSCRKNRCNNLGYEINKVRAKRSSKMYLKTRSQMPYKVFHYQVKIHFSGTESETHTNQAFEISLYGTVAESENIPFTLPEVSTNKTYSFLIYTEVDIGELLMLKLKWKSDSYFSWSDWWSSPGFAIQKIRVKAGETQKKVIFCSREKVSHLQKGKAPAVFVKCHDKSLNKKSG
T1 sequence (Q8IV16 21-151 partner limits assumed): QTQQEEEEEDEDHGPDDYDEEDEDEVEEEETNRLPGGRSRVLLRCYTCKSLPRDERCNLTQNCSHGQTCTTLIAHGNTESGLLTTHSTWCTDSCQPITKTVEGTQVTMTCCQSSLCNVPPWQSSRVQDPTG
Experiment: RB assay (LPL:sGPIHBP1 pre-incubated with ANGPTL4, RB substrate)
Format: biochemical
Details: read-out: RB qAC50
Protocol: The assay was performed in black 1536-well plates using purified proteins. To identify compounds that stimulate LPL activity either by directly activating LPL or by inhibiting the antagonist ANGPTL4, the LPL:sGPIHBP1 complex was pre-incubated with ANGPTL4 to decrease LPL activity by 80%. After a 60 min pre-incubation, the reaction was started by adding the RB substrate. 30 min after RB addition, the enzymatic reaction was stopped using SDS. Fluorescence intensity was measured 2 h after stopping the reaction.
20 or 40 nl of compound solution in 100% DMSO were placed in test plate. Then was added LPL:sGPIHBP1 to all wells (diluted in assay buffer to 5 nM; 2 μl/well). This was followed by an addition of ANGPTL4 to compounds and neutral controls (diluted in assay buffer to 20 nM; 1 μl/well). A buffer solution was added to the stimulator control (1 μl/well). The plates were then centrifuged and pre-incubated for 60 min at RT. The reaction was started by adding substrate to all wells (diluted in assay buffer to 40 μM, 1 μl/well). The plated were centrifuged (800 rpm for 1 min) and incubated 30 min at RT (=reaction time). The reaction was stopped by adding SDS to all wells (diluted in water to 2.5%, 2 μl/well); incubated 2 h at RT. The fluorescence intensity (ex 540 nm/em 590 nm) was measured on a Pherastar (BMG) using 5 flashes.

Going from `O=C(O)Cc1ccc(F)cc1NC(=O)c1ccc(N2CCCCC2)c(NC(=O)c2nn(CC(F)(F)F)c3ccccc23)c1` [Compound 38, 2-(4-fluoro-2-(4-(piperidin-1-yl)-3-(1-(2,2,2-trifluoroethyl)-1H-indazole-3-carboxamido)benzamido)phenyl)acetic acid] to `O=C(O)Cc1cc(F)ccc1NC(=O)c1ccc(N2CCCC2)c(NC(=O)c2nn(CC(F)(F)F)c3ccccc23)c1` [Example 50], the EC50 rises from 3.6 µM to 24 µM (6.7-fold). The first is the more potent here.

`O=C(O)Cc1cc(F)ccc1NC(=O)c1ccc(N2CCOCC2)c(NC(=O)c2nn(CC(F)(F)F)c3ccccc23)c1` [Example 56] and `CN1CCN(c2ccc(C(=O)Nc3ccc(F)cc3CC(=O)O)cc2NC(=O)c2nn(CC(F)(F)F)c3ccccc23)CC1` [Example 57] cannot be ordered by EC50: 15 µM for the first, greater than 7.1 µM for the second.

Compared with `Cc1cccc2c(C(=O)Nc3cc(C(=O)Nc4ccc(F)cc4CC(=O)O)ccc3N3CCCCC3)nn(CC(F)(F)F)c12` [Compound 144, 2-(5-fluoro-2-(3-(7-methyl-1-(2,2,2-trifluoroethyl)-1H-indazole-3-carboxamido)-4-(piperidin-1-yl)benzamido)phenyl)acetic acid], `Cc1cccc2c1c(C(=O)Nc1cc(C(=O)Nc3ccc(F)cc3CC(=O)O)ccc1N1CCCCC1)nn2CC(F)(F)F` [Compound 141, 2-(5-fluoro-2-(3-(4-methyl-1-(2,2,2-trifluoroethyl)-1H-indazole-3-carboxamido)-4-(piperidin-1-yl)benzamido)phenyl)acetic acid] is higher in EC50: 5.8 µM for the first, greater than 25 µM for the second.

Going from `Cc1c(C(=O)Nc2cc(C(=O)Nc3ccc(F)cc3CC(=O)O)ccc2N2CCCCC2)c2ccccc2n1CC(F)(F)F` [Compound 130, 2-(5-fluoro-2-(3-(2-methyl-1-(2,2,2-trifluoroethyl)-1H-indole-3-carboxamido)-4-(piperidin-1-yl)benzamido)phenyl)acetic acid] to `O=C(O)Cc1cc(F)ccc1NC(=O)c1ccc(N2CCCCC2)c(NC(=O)c2c3ccccc3nn2CC(F)(F)F)c1` [Compound 135, 2-(5-fluoro-2-(4-(piperidin-1-yl)-3-(2-(2,2,2-trifluoroethyl)-2H-indazole-3-carboxamido)benzamido)phenyl)acetic acid hydrochloride], the EC50 falls from greater than 25 µM to 12 µM. The second is the more potent here.

Compared with `O=C(O)Cc1cc(F)ccc1NC(=O)c1ccc(N2CC3(CCC3)C2)c(NC(=O)c2nn(CC(F)(F)F)c3ccccc23)c1` [Example 49], `O=C(O)Cc1cc(F)ccc1NC(=O)c1ccc(N2CCC3(CC3)C2)c(NC(=O)c2nn(CC(F)(F)F)c3ccccc23)c1` [Example 53] is 2.9-fold lower in EC50: 20 µM for the first, 6.8 µM for the second.

First: COC1CCN(c2ccc(C(=O)Nc3ccc(F)cc3CC(=O)O)cc2NC(=O)c2nn(CC(F)(F)F)c3ccccc23)CC1 [Example 65]
Second: CC1(C)CCN(c2ccc(C(=O)Nc3ccc(F)cc3CC(=O)O)cc2NC(=O)c2nn(CC(F)(F)F)c3ccccc23)CC1 [Example 61]
The EC50 of the first is higher: greater than 7.1 µM for the first, 3.6 µM for the second.

`O=C(O)Cc1cc(F)ccc1NC(=O)c1ccc(N2CCCCC2)c(NC(=O)c2nn(CC3CC3)c3ccccc23)c1` [Compound 94, 2-(2-(3-(1-(cyclopropylmethyl)-1H-indazole-3-carboxamido)-4-(piperidin-1-yl)benzamido)-5-fluorophenyl)acetic acid] and `O=C(O)Cc1cc(F)ccc1NC(=O)c1ccc(N2CCCCC2)c(NC(=O)c2nn(CC3CCC3)c3ccccc23)c1` [Compound 98, 2-(2-(3-(1-(cyclobutylmethyl)-1H-indazole-3-carboxamido)-4-(piperidin-1-yl)benzamido)-5-fluorophenyl)acetic acid] are within 1.5-fold of each other in EC50: 5.9 µM for the first, 6.1 µM for the second.

Going from `N#CC1(Cn2nc(C(=O)Nc3cc(C(=O)Nc4ccc(F)cc4CC(=O)O)ccc3N3CCCCC3)c3ccccc32)CC1` [Compound 127, 2-(2-(3-(1-((1-cyanocyclopropyl)methyl)-1H-indazole-3-carboxamido)-4-(piperidin-1-yl)benzamido)-5-fluorophenyl)acetic acid] to `NCCn1nc(C(=O)Nc2cc(C(=O)Nc3ccc(F)cc3CC(=O)O)ccc2N2CCCCC2)c2ccccc21` [Compound 100, 2-(2-(3-(1-(2-aminoethyl)-1H-indazole-3-carboxamido)-4-(piperidin-1-yl)benzamido)-5-fluorophenyl)acetic acid], the EC50 rises from 4.3 µM to greater than 25 µM.

First: O=C(O)Cc1cc(F)ccc1NC(=O)c1ccc(N2C3CCC2CC3)c(NC(=O)c2nn(CC(F)(F)F)c3ccccc23)c1 [Example 54]
Second: O=C(O)Cc1cc(F)ccc1NC(=O)c1ccc(N2CC3CCC2C3)c(NC(=O)c2nn(CC(F)(F)F)c3ccccc23)c1 (racemic) [Example 58]
The EC50 of the first is 2.6-fold lower: 6.9 µM for the first, 18 µM for the second. The first is the more potent here.

Going from `O=C(O)Cc1cc(F)ccc1NC(=O)c1ccc(N2CC3CC3C2)c(NC(=O)c2nn(CC(F)(F)F)c3ccccc23)c1` (stereo not drawn) [Example 52] to `O=C(O)Cc1cc(F)ccc1NC(=O)c1ccc(N2CCOC2=O)c(NC(=O)c2nn(CC(F)(F)F)c3ccccc23)c1` [Example 60], the EC50 rises from 5 µM to greater than 25 µM. The first is the more potent here.

First: O=C(O)Cc1cc(F)ccc1NC(=O)c1ccc(N2CCCCC2)c(NC(=O)c2cc(-c3ccccc3)nn2CC(F)(F)F)c1 [Compound 134, 2-(5-fluoro-2-(3-(3-phenyl-1-(2,2,2-trifluoroethyl)-1H-pyrazole-5-carboxamido)-4-(piperidin-1-yl)benzamido)phenyl)acetic acid]
Second: O=C(O)Cc1cc(F)ccc1NC(=O)c1ccc(N2CCCCC2)c(NC(=O)c2nn(CC(F)(F)F)c3ncccc23)c1 [Compound 113, 2-(5-fluoro-2-(4-(piperidin-1-yl)-3-(1-(2,2,2-trifluoroethyl)-1H-pyrazolo[3,4-b]pyridine-3-carboxamido)benzamido)phenyl)acetic acid]
The EC50 of the first is 2-fold lower: 4.4 µM for the first, 9 µM for the second.

`O=C(O)Cc1cc(F)ccc1NC(=O)c1ccc(N2CCCCC2)c(NC(=O)c2nn(CC3CCOCC3)c3ccccc23)c1` [Compound 104, 2-(5-fluoro-2-(4-(piperidin-1-yl)-3-(1-((tetrahydro-2H-pyran-4-yl)methyl)-1H-indazole-3-carboxamido)benzamido)phenyl)acetic acid] and `O=C(O)Cc1cc(F)ccc1NC(=O)c1ccc(N2CCCCC2)c(NC(=O)c2nn(C[C@H]3CCCO3)c3ccccc23)c1` [Compound 137, (R)-2-(5-fluoro-2-(4-(piperidin-1-yl)-3-(1-((tetrahydrofuran-2-yl)methyl)-1H-indazole-3-carboxamido)benzamido)phenyl)acetic acid] are within 1.5-fold of each other in EC50: 3.2 µM for the first, 3.8 µM for the second.

First: O=C(O)Cc1cc(F)ccc1NC(=O)c1ccc(N2CCCCC2)c(NC(=O)c2nn(CC(F)(F)F)c3c2CCC3)c1 [Compound 145, 2-(5-fluoro-2-(4-(piperidin-1-yl)-3-(1-(2,2,2-trifluoroethyl)-1,4,5,6-tetrahydrocyclopenta[c]pyrazole-3-carboxamido)benzamido)phenyl)acetic acid]
Second: Cc1cc(N2CCCCC2)c(NC(=O)c2nn(CC(F)(F)F)c3ccccc23)cc1C(=O)Nc1ccc(F)cc1CC(=O)O [Compound 55, 2-(5-fluoro-2-(2-methyl-4-(piperidin-1-yl)-5-(1-(2,2,2-trifluoroethyl)-1H-indazole-3-carboxamido)benzamido)phenyl)acetic acid]
The EC50 of the first is 3-fold higher: 15 µM for the first, 5 µM for the second. The second is the more potent here.

In the case of `Cc1cc(Cn2nc(C(=O)Nc3cc(C(=O)Nc4ccc(F)cc4CC(=O)O)ccc3N3CCCCC3)c3ccccc32)no1` [Compound 124, 2-(5-fluoro-2-(3-(1-((5-methylisoxazol-3-yl)methyl)-1H-indazole-3-carboxamido)-4-(piperidin-1-yl)benzamido)phenyl)acetic acid], the EC50 is reported as 4.7 µM.
